Source: US20260274833A1 (NiKang Therapeutics, Inc., priority 2022, published 2026)

biological target: T1, CDK2 (Homo sapiens, UniProt P24941); test: Phospho-RB measurement in OVCAR3 cells (HTRF phospho-RB cellular kit); type: cell-based; details: inhibition of RB phosphorylation at S807/811 (HTRF, TR-FRET ratio 665/620), 24 h compound treatment, 0.3 to 10,000 nM
T1 construct: endogenous in cells; host or cells: OVCAR3 cells
Procedure: Biological Example 1: Phospho-RB Measurement in OVCAR3 Cells
The ability of compounds of Formula (I) to inhibit CDK2 was determined in OVCAR3 cells by measuring inhibition of phosphorylation of RB protein at S780 and S807/811. Phosphorylation of RB protein at S807/811 were measured using HTRF phospho-RB cellular kits (Cat #64RBS807PEG) from Cisbio.
On Day 1, OVCAR3 cells were seeded into 96-well tissue-culture treated plates at 20,000 cells/well in 200 μL and incubated overnight at 37° C. in CO2 atmosphere. On Day 2, the cells were treated with test compounds at concentrations from 0.3 to 10,000 nM using HP D300 digital dispenser. Twenty-four hours after compound treatment, cell culture media was removed by flicking the plate and tapping the plate against clean paper towel. Immediately 30 μL 1× lysis buffer was supplemented from the kit and the plate was incubated at room temperature on shaker for 30 min. After homogenization by pipetting up and down, 8 μL cell lysate from 96-well cell culture plate was transferred to 384-well small volume white detection plate. 2 μL premixed detection solution was added and the plate was covered with sealer. To prepare the detection solution, d2 conjugated-phospho-RB antibody and Eu-cryptate conjugated phosphor-RB antibody were diluted into detection buffer following manufacturer's instruction.
Detection plates were incubated for 4 h at room temperature and read on ClarioStar (BMG Labtech) in TR-FRET mode ([…]). The TR-FRET ratio (665 nM/620 nM) was plotted against the compound concentration and normalized to DMSO controls. Half maximal inhibition concentration (IC50) values are calculated with a four-parameter logistic fit using GraphPad Prism (version 8; La Jolla, CA).

Row | IC50 [nM] | Structure (SMILES)
1 | 55.7 | O=S1(=O)CC2(CC(Nc3nccc(-c4sc(C56CC(C5)C6)nc4-c4cccc(NS(=O)(=O)N5CCc6ccc(Cl)cc65)c4F)n3)C2)C1 [Example 21, N-(3-(2-(bicyclo [1.1.1]pentan-1-yl)-5-(2-((2,2-dioxido-2-thiaspiro[3.3]heptan-6-yl)amino)-pyrimidin-4-yl)thiazol-4-yl)-2-fluorophenyl)-6-chloroindoline-1-sulfonamide]
2 | 477 | CN(C)c1ccc2c(c1)N(S(=O)(=O)Nc1cccc(-c3nc(C45CC(C4)C5)sc3-c3ccnc(NC4CC5(C4)CS(=O)(=O)C5)n3)c1F)CC2 [Example 22, N-(3-(2-(bicyclo [1.1.1]pentan-1-yl)-5-(2-((2,2-dioxido-2-thiaspiro [3.3]heptan-6-yl)amino)-pyrimidin-4-yl)thiazol-4-yl)-2-fluorophenyl)-6-(dimethylamino)-indoline-1-sulfonamide]
3 | 136 | COc1cccc2c1CN(S(=O)(=O)Nc1cccc(-c3nc(C45CC(C4)C5)sc3-c3ccnc(NC4CC5(C4)CS(=O)(=O)C5)n3)c1F)C2 [Example 23, N-(3-(2-(bicyclo [1.1.1]pentan-1-yl)-5-(2-((2,2-dioxido-2-thiaspiro[3.3]heptan-6-yl)amino)-pyrimidin-4-yl)thiazol-4-yl)-2-fluorophenyl)-4-methoxyisoindoline-2-sulfonamide]
4 | 102 | O=S1(=O)CC2(CC(Nc3nccc(-c4sc(C56CC(C5)C6)nc4-c4cccc(NS(=O)(=O)N5Cc6cccc(OC(F)F)c6C5)c4F)n3)C2)C1 [Example 24, N-(3-(2~(bicyclo [1.1.1]pentan-1-yl)-5-(2-((2,2-dioxido-2-thiaspiro[3.3]heptan-6-yl)amino)-pyrimidin-4-yl)thiazol-4-yl)-2-fluorophenyl)-4-(difluoromethoxy)-isoindoline-2-sulfonamide]
5 | 75.1 | O=S1(=O)CC2(CC(Nc3nccc(-c4sc(C56CC(C5)C6)nc4-c4cccc(NS(=O)(=O)N5Cc6cccc(C(F)(F)F)c6C5)c4F)n3)C2)C1 [Example 25, N-(3-(2-(bicyclo [1.1.1]pentan-1-yl)-5-(2-((2,2-dioxido-2-thiaspiro[3.3]heptan-6-yl)amino)-pyrimidin-4-yl)thiazol-4-yl)-2-fluorophenyl)-4-(trifluoromethyl)-isoindoline-2-sulfonamide]
6 | 160 | C#Cc1ccc2c(c1)N(S(=O)(=O)Nc1cccc(-c3nc(C45CC(C4)C5)sc3-c3ccnc(NC4CC5(C4)CS(=O)(=O)C5)n3)c1F)CC2 [Example 26, N-(3-(2-(bicyclo [1.1.1]pentan-1-yl)-5-(2-((2,2-dioxido-2-thiaspiro[3.3]heptan-6-yl)amino)-pyrimidin-4-yl)thiazol-4-yl)-2-fluorophenyl)-6-ethynylindoline-1-sulfonamide]
7 | 161 | O=S1(=O)CC2(CC(Nc3nccc(-c4sc(C56CC(C5)C6)nc4-c4cccc(NS(=O)(=O)N5CCc6ccc(C(F)F)cc65)c4F)n3)C2)C1 [Example 27, N-(3-(2-(bicyclo [1.1.1]pentan-1-yl)-5-(2-((2,2-dioxido-2-thiaspiro[3.3]heptan-6-yl)amino)-pyrimidin-4-yl)thiazol-4-yl)-2-fluorophenyl)-6-(difluoromethyl)-indoline-1-sulfonamide]
8 | 71.9 | O=S1(=O)CC2(CC(Nc3nccc(-c4sc(C56CC(C5)C6)nc4-c4cccc(NS(=O)(=O)N5Cc6cccc(C(F)F)c6C5)c4F)n3)C2)C1 [Example 28, N-(3-(2-(bicyclo [1.1.1]pentan-1-yl)-5-(2-((2,2-dioxido-2-thiaspiro[3.3]heptan-6-yl)amino)-pyrimidin-4-yl)thiazol-4-yl)-2-fluorophenyl)-4-(difluoromethyl)-isoindoline-2-sulfonamide]
9 | 70.8 | O=S1(=O)CC2(CC(Nc3nccc(-c4sc(C56CC(C5)C6)nc4-c4cccc(NS(=O)(=O)N5CCc6ccc(F)cc65)c4F)n3)C2)C1 [Example 29, N-(3-(2-(bicyclo [1.1.1]pentan-1-yl)-5-(2-((2,2-dioxido-2-thiaspiro[3.3]heptan-6-yl)amino)-pyrimidin-4-yl)thiazol-4-yl)-2-fluorophenyl)-6-fluoroindoline-1-sulfonamide]
10 | 28.5 | CN1CC2CCC(C1)N2c1nc(-c2cccc(NS(=O)(=O)N3Cc4cccc(OC(F)F)c4C3)c2F)c(-c2ccnc(NC3CC4(C3)CS(=O)(=O)C4)n2)s1 [Example 30, 4-(difluoromethoxy)-N-(3-(5-(2-((2,2-dioxido-2-thiaspiro [3.3]heptan-6-yl)amino)pyrimidin-4-yl)-2-(3-methyl-3,8-diazabicyclo [3.2.1]-octan-8-yl)thiazol-4-yl)-2-fluorophenyl)-isoindoline-2-sulfonamide]
11 | 30.2 | COc1cccc2c1CN(S(=O)(=O)Nc1cccc(-c3nc(N4C5CCC4CN(C)C5)sc3-c3ccnc(NC4CC5(C4)CS(=O)(=O)C5)n3)c1F)C2 [Example 31, N-(3-(5-(2-((2,2-dioxido-2-thiaspiro-[3.3]-heptan-6-yl)amino)pyrimidin-4-yl)-2-(3-methyl-3,8-diazabicyclo [3.2.1]-octan-8-yl)-thiazol-4-yl)-2-fluoro-phenyl)-4-methoxy-isoindoline-2-sulfonamide]
12 | 23.1 | CN1CC2CCC(C1)N2c1nc(-c2cccc(NS(=O)(=O)N3Cc4cccc(C(F)(F)F)c4C3)c2F)c(-c2ccnc(NC3CC4(C3)CS(=O)(=O)C4)n2)s1 [Example 32, N-(3-(5-(2-((2,2-dioxido-2-thiaspiro-[3.3]-heptan-6-yl)amino)pyrimidin-4-yl)-2-(3-methyl-3,8-diazabicyclo[3.2.1]-octan-8-yl)-thiazol-4-yl)-2-fluoro-phenyl)-4-(trifluoro-methyl)isoindoline-2-sulfonamide]
13 | 153 | O=S1(=O)CC2(CC(Nc3nccc(-c4sc(N5C6CCC5CN(CC(F)(F)F)C6)nc4-c4cccc(NS(=O)(=O)N5Cc6cccc(OC(F)F)c6C5)c4F)n3)C2)C1 [Example 33, 4-(difluoromethoxy)-N-(3-(5-(2-((2,2-dioxido-2-thiaspiro [3.3]heptan-6-yl)amino)pyrimidin-4-yl)-2-(3-(2,2,2-trifluoroethyl)-3,8-diazabicyclo-[3.2.1]octan-8-yl)thiazol-4-yl)-2-fluorophenyl) isoindoline-2-sulfonamide]
14 | 116 | O=S1(=O)CC2(CC(Nc3nccc(-c4sc(C56CC(C5)C6)nc4-c4cccc(NS(=O)(=O)N5CCc6cc(F)c(F)cc65)c4F)n3)C2)C1 [Example 34, N-(3-(2-(bicyclo [1.1.1]pentan-1-yl)-5-(2-((2,2-dioxido-2-thiaspiro[3.3]heptan-6-yl)amino)-pyrimidin-4-yl)thiazol-4-yl)-2-fluorophenyl)-5,6-difluoroindoline-1-sulfonamide]
15 | 1590 | O=S1(=O)CC2(CC(Nc3nccc(-c4sc(C56CC(C5)C6)nc4-c4cccc(NS(=O)(=O)N5CCc6cc(C(F)(F)F)ccc65)c4F)n3)C2)C1 [Example 35, N-(3-(2-(bicyclo [1.1.1]pentan-1-yl)-5-(2-((2,2-dioxido-2-thiaspiro[3.3]heptan-6-yl)amino)-pyrimidin-4-yl)thiazol-4-yl)-2-fluorophenyl)-5-(trifluoromethyl)-indoline-1-sulfonamide]
16 | 195 | O=S1(=O)CC2(CC(Nc3nccc(-c4sc(C56CC(C5)C6)nc4-c4cccc(NS(=O)(=O)N5CCc6ccc(OC(F)(F)F)cc65)c4F)n3)C2)C1 [Example 36, N-(3-(2-(bicyclo [1.1.1]pentan-1-yl)-5-(2-((2,2-dioxido-2-thiaspiro [3.3]heptan-6-yl)amino)-pyrimidin-4-yl)thiazol-4-yl)-2-fluorophenyl)-6-(trifluoromethoxy) indoline-1-sulfonamide]
17 | 74.5 | O=S1(=O)CC2(CC(Nc3nccc(-c4sc(C56CC(C5)C6)nc4-c4cccc(NS(=O)(=O)N5CCc6c(F)cc(F)cc65)c4F)n3)C2)C1 [Example 37, N-(3-(2-(bicyclo [1.1.1]pentan-1-yl)-5-(2-((2,2-dioxido-2-thiaspiro[3.3]heptan-6-yl)amino)-pyrimidin-4-yl)thiazol-4-yl)-2-fluorophenyl)-4,6-difluoroindoline-1-sulfonamide]
18 | 263 | O=S1(=O)CC2(CC(Nc3nccc(-c4sc(N5C6CCC5CN(CC(F)(F)F)C6)nc4-c4cccc(NS(=O)(=O)N5CCc6ccccc65)c4F)n3)C2)C1 [Example 38, N-(3-(5-(2-((2,2-dioxido-2-thiaspiro-[3.3]-heptan-6-yl)amino)pyrimidin-4-yl)-2-(3-(2,2,2-trifluoroethyl)-3,8-diazabicyclo[3.2.1]-octan-8-yl)thiazol-4-yl)-2-fluorophenyl)-indoline-1-sulfonamide]
19 | 752 | O=S1(=O)CC2(CC(Nc3nccc(-c4sc(N5C6CCC5CN(CC(F)(F)F)C6)nc4-c4cccc(NS(=O)(=O)N5CCc6ccc(C(F)(F)F)cc65)c4F)n3)C2)C1 [Example 39, N-(3-(5-(2-((2,2-dioxido-2-thiaspiro-[3.3]-heptan-6-yl)amino)pyrimidin-4-yl)-2-(3-(2,2,2-trifluoroethyl)-3,8-diazabicyclo[3.2.1]-octan-8-yl)thiazol-4-yl)-2-fluorophenyl)-6-(trifluoromethyl)-indoline-1-sulfonamide]
